Results taken from ChEMBL document CHEMBL3297673, “Antifungal amphidinol 18 and its 7-sulfate derivative from the marine dinoflagellate Amphidinium carterae” (J Nat Prod, 2014).
Converted amounts (≈) assume the structure as drawn. The source made the active and inactive calls. The rule behind the calls is not given here.

Experiments:
[1] = tested on: Candida albicans; assay: Antifungal activity against Candida albicans after 48 hrs by broth microdilution method; assay type: functional
[2] = Toxicity in erythrocytes (unknown origin) assessed as hemolytic activity; assay type: cell-based; conditions: erythrocyte

| SMILES | MIC [1] [µg/mL] | Activity [2] | Activity [1] |
| --- | --- | --- | --- |
| C=C/C=C/CC/C=C/C=C/C=C/CC/C=C/[C@H](O)[C@H](O)[C@@H]1O[C@@H]([C@H](O)[C@H](O)C(=C)CC[C@@H](O)[C@H]2C[C@@H](O)[C@@H](O)[C@H]([C@@H](O)[C@H](O)/C=C(\C)CCC(O)CC(O)C(O)C(C)CC(O)C(O)CC(C)CCC(O)CC(=O)CC(O)CCCC(O)CCCCC(O)CO)O2)C[C@@H](O)[C@H]1O (some centres undefined) | 9 (≈ 6.62 µM) | Toxic |  |
| C=C/C=C/CC/C=C/C=C/C=C/CC/C=C/[C@H](O)[C@H](O)[C@@H]1O[C@@H]([C@H](O)[C@H](O)C(=C)CC[C@@H](O)[C@H]2C[C@@H](O)[C@@H](O)[C@H]([C@@H](O)[C@H](O)/C=C(\C)CCC(O)CC(O)C(O)C(C)CC(O)C(O)CC(C)CCC(O)CC(=O)CC(O)CCCC(CCCCC(O)CO)OS(=O)(=O)[O-])O2)C[C@@H](O)[C@H]1O.[Na+] (some centres undefined) |  | Toxic | inactive |
